In series [1] the target is T1, ALDH1A2 (Homo sapiens, UniProt O94788).
T1 construct: E. coli BL21 (DE3) were transformed with the full-length expression vector of each isoform; His-tag; made in house; host or cells: E. coli BL21 (DE3)
T1 sequence (O94788 1-518): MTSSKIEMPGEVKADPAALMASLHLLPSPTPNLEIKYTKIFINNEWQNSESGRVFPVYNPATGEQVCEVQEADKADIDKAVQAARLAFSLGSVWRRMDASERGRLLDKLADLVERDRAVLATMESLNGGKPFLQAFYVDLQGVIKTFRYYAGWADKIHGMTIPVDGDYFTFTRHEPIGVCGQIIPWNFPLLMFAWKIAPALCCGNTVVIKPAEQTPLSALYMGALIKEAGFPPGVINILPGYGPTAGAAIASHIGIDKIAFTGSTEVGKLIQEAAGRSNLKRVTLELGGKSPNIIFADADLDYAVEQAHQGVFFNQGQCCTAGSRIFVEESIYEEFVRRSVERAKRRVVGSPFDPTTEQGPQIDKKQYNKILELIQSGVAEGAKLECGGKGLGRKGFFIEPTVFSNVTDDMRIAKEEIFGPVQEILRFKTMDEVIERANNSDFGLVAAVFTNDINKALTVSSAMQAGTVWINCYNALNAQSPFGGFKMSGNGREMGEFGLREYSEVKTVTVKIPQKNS
The series can be described thus: Enzymatic inhibition assay with acetaldehyde. The note with it: up to highest probe concentration. The class given is biochemical. The protocol:
(§1) Initially, the inhibitory activities of our fluorescent probes were screened at a fixed concentration of 50 μM using a Tecan Sunrise 96 Multiplate Reader with Greiner Bio-One 96-UV-Transparent Microplates. The analysis was performed in triplicate in a total volume of 100 μl per well containing 20 mM Tris HCl pH 8.0, 1 mM β-mercaptoethanol, 150 mM KCl, 500 μM NAD^+, […], 2.8 μM hALDH1A and 20 mM acetaldehyde. Afterwards, the inhibitory potency of the fluorescent probes was further investigated, evaluating the IC50 parameter. The enzymatic inhibition assays were performed in triplicate in a total volume of 100 μl per well containing 20 mM Tris HCl pH 8.0, 1 mM β-mercaptoethanol, 150 mM KCl, 500 μM NAD^+, 2.8 μM hALDH1A and 20 mM acetaldehyde in the presence of different probe concentrations, from 200 μM to 1.5625 μM. The DMSO final concentration allowed was up to 15%. Only for ALDH1A3 in complex with Probe 10, the Ki affinity parameter was calculated by performing the analysis in triplicate in a total volume of 100 μl per well containing 20 mM Tris HCl pH 8.0, 1 mM β-mercaptoethanol, 150 mM KCl, 500 μM NAD^+ and 2.8 μM ALDH1As. Due to chemical nature of Probe 10 and Probe 11, we set up the enzymatic assay assuming a competitive inhibition using different compounds concentration, from 200 μM to 1 μM, and different acetaldehyde concentrations, from 20 mM to 2.5 mM. Each reaction mix was preincubated for 10 min at 25 °C before the analysis. The catalytic activity was measured by monitoring the absorbance at 340 nm (εNADH = 6220 M^−^1 cm^−1) for 30 min at 25 °C and the inhibitory parameters were calculated by processing the raw data on SigmaPlot[53].

For series [2], the target named is T2, ALDH1A1 (Homo sapiens, UniProt P00352).
T2 construct: E. coli BL21 (DE3) were transformed with the full-length expression vector of each isoform; His-tag; made in house; host or cells: E. coli BL21 (DE3)
T2 sequence (P00352 1-501): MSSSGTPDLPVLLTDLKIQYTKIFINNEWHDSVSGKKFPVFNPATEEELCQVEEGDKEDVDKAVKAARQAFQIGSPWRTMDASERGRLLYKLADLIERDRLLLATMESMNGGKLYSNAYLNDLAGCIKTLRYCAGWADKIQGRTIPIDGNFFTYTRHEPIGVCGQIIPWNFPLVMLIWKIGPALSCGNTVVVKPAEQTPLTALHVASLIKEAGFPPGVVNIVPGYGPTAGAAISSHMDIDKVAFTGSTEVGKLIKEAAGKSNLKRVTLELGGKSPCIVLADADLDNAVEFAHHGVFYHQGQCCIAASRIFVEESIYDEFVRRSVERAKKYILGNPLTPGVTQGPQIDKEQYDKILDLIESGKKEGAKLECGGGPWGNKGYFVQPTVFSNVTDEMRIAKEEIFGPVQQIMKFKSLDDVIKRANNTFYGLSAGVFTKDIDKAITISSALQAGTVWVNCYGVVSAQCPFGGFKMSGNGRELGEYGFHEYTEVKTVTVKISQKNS
The series can be described thus: Enzymatic inhibition assay with acetaldehyde. The class given is biochemical. The settings on record: up to highest probe concentration. The protocol: as §1

Series [3] concerns patient-derived glioma cells 3060. Briefly: Cell viability (MTT assay). The class given is cell-based, human. The note with it: 3060; 10uM, 72 h. The protocol:
(§2) In total, 10 × 10^5 U87MG human glioblastoma, patient-derived glioma cells 3054 and 3060, HEK293T human embryonic kidney, 4T1 murine mammary carcinoma, human fetal astrocytes cell lines were plated in their respective medium and treated for 72 h with our fluorescent probe 10 and 11, solubilized in DMSO in a final concentration of […]. We treated controls with DMSO in the same final concentration and we compared the viability of each treatment to controls. The viability of cells was measured using the 3-(4,5-dimethylthiazol-2-yl)-2,5-diphenyltetrazolium assay (MTT assay)[23].

Series [4] can be described thus: Cell viability (MTT assay). The settings on record: human. The class given is cell-based, human. The protocol: as §2
In series [5] the test system is HEK293T human embryonic kidney. The series can be described thus: Cell viability (MTT assay). The class given is cell-based. The note with it: 10uM, 72 h. The procedure:
as §2

For series [6], the system named is human fetal astrocytes. The series can be described thus: Cell viability (MTT assay). The class given is cell-based. The settings on record: hASTRO; 10uM, 72 h. The procedure:
as §2

Series [7] concerns patient-derived glioma cells 3054. The series can be described thus: Cell viability (MTT assay). The class given is cell-based, human. The note with it: 3054; 10uM, 72 h. The procedure:
as §2

Series [8] concerns U87MG human glioblastoma. The series can be described thus: Cell viability (MTT assay). The class given is cell-based. The settings on record: 10uM, 72 h. The protocol:
as §2

In series [9] the test system is 4T1 murine mammary carcinoma. The series can be described thus: Cell viability (MTT assay). The note with it: 10uM, 72 h. The class given is cell-based. The procedure:
as §2

Series [10] in a line: Cell viability (MTT assay). The class given is cell-based, murine. The note with it: mouse, 4T1 mammary carcinoma cells. The procedure:
as §2

Structures are written as SMILES. “And” between values parts separate entries of the source, which are not always exact repeats. Identical values can stand only once.

As for `CCOC(=O)Cn1cc(COc2ccc(/C=C/C(=O)/C=C(O)/C=C/c3ccc(O)c(OC)c3)cc2OC)nn1` [Probe 11], the “inhibition of ALDH1A2” value in series [1] is “no inhibitory effect”. Further, in series [2], the “inhibition of ALDH1A1” value is reported as “no inhibitory effect”.
Take `COc1cc(/C=C/C(O)=C/C(=O)/C=C/c2ccc(OCc3cn(CCOc4ccc(C=O)cc4)nn3)c(OC)c2)ccc1O` [Probe 10]: the “% cell viability” value in [3] was 90.8745% and 90.3258% and 91.3365% and 91.3478% and 90.9745% and 90.4258% and 91.2365%; in [5], 84.6125% and 86.4467% and 91.2307% and 96.8963% and 84.5125% and 86.3467% and 91.1307%; in series [6], 80.9182% and 84.1614% and 88.5188% and 85.4535% and 80.8182% and 84.0614% and 88.4188%; in series [7], 92.2458% and 92.6485% and 92.3652% and 91.8745% and 92.3458% and 92.5485% and 92.2652%; in series [8] it was 87.4968% and 85.4873% and 86.3577% and 86.8785% and 87.5968% and 85.3873% and 86.4577%; in series [9], 86.9788% and 85.5694% and 83.5736% and 83.6921% and 86.8788% and 85.6693% and 83.8736%. Besides, the viability at 72 h, 10 µM in series [4] (HEK293T embryonic kidney cells) worked out at 96.8%; in series [4] (U87MG glioblastoma cells), 86.8%; in [4] (human fetal astrocytes, hASTRO), 85.3%; in series [4] (patient-derived glioma cells 3054, 3054), 91.4%; in series [4] (patient-derived glioma cells 3060, 3060) it was 91.2%; in series [10], 83.6%. The “inhibition of ALDH1A2” value in series [1] was “Neither of the two other isozymes were inhibited”. The “inhibition of ALDH1A1” value in series [2] is on record as “Neither of the two other isozymes were inhibited”.
